# Values joined by “and” are separate entries in the source; they are usually repeats but may differ in a detail not shown here. Identical values can stand only once.
# Key:
# [1] = tested on: healthy volunteers; conditions: human, in vivo
# [2] = tested on: VeroE6 cells
# [3] = tested on: Caco-2 cells
# [4] = Phase 1 trial of inhaled niclosamide, safety and PK; conditions: human, blood, inhaled, 6 mL of 1% formulation
# [5] = tested on: healthy volunteers; test: as above; conditions: after repeated inhalation doses; raw data
# [6] = tested on: SARS-CoV-2; conditions: Vero E6 cells; Wang et al. 2020; read-out: EC50 against SARS-CoV-2; cited from earlier work
# [7] = tested on: ATCC 29213 (A), MRSA 434844 (B) and S. aureus Newman (C); test: Spot test on LB agar, all three strains; type: cell-based; conditions: for effect on bacterial load, API in DMSO: repeat spot test, only highest concentration (niclosamide 100 µg/mL, oxyclozanide 40 µg/mL)
# Procedure: Following incubation, the formed colonies were counted. […] Duplicates were performed.
# As both positive controls were negative further the experiment was repeated using different concentrations in a spot test using the same methodology described above.
# In this experiment the negative control was the bacterial suspension only.
# [8] = in vivo
# [9] = tested on: SARS-CoV; conditions: cited from earlier work
# [10] = cited from earlier work
# [11] = tested on: asthmatic mice; conditions: dissolved in corn oil, I.P. injection; cited from earlier work
# [12] = molecular target: T1, TMEM16A (Homo sapiens, UniProt Q5XXA6); conditions: Cabrita et al. 2019; cited from earlier work
# T1 sequence (Q5XXA6 1-986): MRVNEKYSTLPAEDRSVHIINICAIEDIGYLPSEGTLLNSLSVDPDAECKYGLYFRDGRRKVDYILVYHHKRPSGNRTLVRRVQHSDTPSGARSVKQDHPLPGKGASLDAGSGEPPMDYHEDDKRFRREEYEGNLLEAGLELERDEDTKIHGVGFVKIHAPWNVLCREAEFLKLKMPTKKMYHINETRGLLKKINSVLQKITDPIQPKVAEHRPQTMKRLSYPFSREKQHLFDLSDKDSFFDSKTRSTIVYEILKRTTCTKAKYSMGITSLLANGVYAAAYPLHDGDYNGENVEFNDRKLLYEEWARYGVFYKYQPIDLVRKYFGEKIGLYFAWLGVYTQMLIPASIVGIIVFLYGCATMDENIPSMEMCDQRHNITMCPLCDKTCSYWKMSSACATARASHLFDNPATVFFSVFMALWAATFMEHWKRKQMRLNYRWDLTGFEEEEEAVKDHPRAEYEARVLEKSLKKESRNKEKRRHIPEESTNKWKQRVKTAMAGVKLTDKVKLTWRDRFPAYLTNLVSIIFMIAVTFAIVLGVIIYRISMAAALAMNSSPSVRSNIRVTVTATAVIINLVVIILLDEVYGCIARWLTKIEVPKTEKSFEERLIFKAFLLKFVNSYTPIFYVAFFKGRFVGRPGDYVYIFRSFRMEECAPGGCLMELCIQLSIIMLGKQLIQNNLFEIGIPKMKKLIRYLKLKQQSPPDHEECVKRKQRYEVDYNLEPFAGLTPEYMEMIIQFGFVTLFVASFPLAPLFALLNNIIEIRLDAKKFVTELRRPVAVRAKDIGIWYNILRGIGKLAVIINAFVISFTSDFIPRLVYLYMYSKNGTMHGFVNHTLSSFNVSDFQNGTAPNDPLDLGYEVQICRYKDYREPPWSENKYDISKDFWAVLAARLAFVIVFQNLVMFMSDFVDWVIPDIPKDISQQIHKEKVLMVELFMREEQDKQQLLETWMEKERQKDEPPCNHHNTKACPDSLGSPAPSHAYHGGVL
# [13] = molecular target: T2, TMEM16F (Homo sapiens, UniProt Q4KMQ2); conditions: Cabrita et al. 2019; cited from earlier work
# T2 sequence (Q4KMQ2 1-910): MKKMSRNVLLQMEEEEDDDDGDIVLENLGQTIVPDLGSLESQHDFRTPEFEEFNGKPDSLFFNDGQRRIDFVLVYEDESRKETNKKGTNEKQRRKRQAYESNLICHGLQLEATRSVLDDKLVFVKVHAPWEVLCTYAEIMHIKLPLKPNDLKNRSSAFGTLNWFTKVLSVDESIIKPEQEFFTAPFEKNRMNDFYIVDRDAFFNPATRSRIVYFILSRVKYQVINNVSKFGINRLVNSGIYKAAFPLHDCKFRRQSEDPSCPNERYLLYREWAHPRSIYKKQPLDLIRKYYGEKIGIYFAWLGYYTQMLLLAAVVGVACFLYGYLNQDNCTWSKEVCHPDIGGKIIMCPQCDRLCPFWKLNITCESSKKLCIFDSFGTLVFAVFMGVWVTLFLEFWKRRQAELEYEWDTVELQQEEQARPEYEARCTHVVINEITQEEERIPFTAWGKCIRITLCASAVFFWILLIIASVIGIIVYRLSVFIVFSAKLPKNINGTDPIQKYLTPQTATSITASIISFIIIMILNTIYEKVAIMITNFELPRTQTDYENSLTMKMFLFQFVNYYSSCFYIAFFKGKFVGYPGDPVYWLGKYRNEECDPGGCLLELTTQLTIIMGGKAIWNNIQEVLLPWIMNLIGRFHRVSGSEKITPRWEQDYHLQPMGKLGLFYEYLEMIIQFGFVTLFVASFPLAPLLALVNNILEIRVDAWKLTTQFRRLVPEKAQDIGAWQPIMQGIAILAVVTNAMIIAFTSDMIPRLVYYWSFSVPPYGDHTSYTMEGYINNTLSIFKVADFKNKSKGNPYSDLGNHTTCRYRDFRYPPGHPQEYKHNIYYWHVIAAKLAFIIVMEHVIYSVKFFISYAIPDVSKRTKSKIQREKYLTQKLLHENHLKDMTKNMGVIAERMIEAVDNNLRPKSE
structure (smiles),measurement,setting,value
O=C(Nc1ccc([N+](=O)[O-])cc1Cl)c1cc(Cl)ccc1O [niclosamide ethanolamine],"AUC0-8, mean",[1],509.0 ng·h/mL
same,"maximum plasma concentration (Cmax), mean",[1],238.9 ng/mL
same,CC50,[2],> 10 µM
same,CC50,[3],> 10 µM
same,half-life,[4]; repeated,162 min
same,half-life,[4]; single dose,120 min
same,peak concentration in blood (range),[5],29 to 506 ng/mL
CC(=O)Oc1ccccc1C(=O)Nc1ncc([N+](=O)[O-])s1 [nitazoxanide],EC50,[6],2120 nM
CCN(CC)CCCC(C)Nc1ccnc2cc(Cl)ccc12 (stereo not shown) [chloroquine],EC50,[6],1130 nM
"O=C(Nc1cc(Cl)cc(Cl)c1O)c1c(O)c(Cl)cc(Cl)c1Cl [oxyclozanide, Oxyclozanide]",efficiency in reducing bacterial load of S. aureus,[7]; comparison of tested formulations,highest efficiency
same,"effect on bacterial load, API in DMSO",[7],substantially decreased the bacterial load
O=C(Nc1ccc([N+](=O)[O-])cc1Cl)c1cc(Cl)ccc1O [niclosamide],"effect on bacterial load, API in DMSO",[7],substantially decreased the bacterial load
same,"efficacy margin, mean systemic exposure of human oral dose to IC90 against SARS-CoV-2",[8],8 fold
same,concentration suppressing cytopathic effect (CPE) of SARS-CoV (as low as),[9],1 µm
same,concentration that totally abolished viral antigen synthesis,[9],1.56 µm
same,EC50,[9]; read-out: EC50 of SARS-CoV replication,< 100 nM
same,administered dose detected in the urine (minimum level of absorption),[10]; after oral administration,2-25%
same,maximal serum concentration of niclosamide,"[10]; human volunteers, single oral dose of 2,000 mg",0.25-6.0 µg/mL and 0.76 -18.3 µM
same,oral bioavailability (F),[10]; oral,10%
same,effect on mucus and bronchoconstriction in asthmatic mice,[11],"reduced mucus production and secretion, as well as bronchoconstriction"
same,inhibition of Cl- channel TMEM16A,[12],potent inhibitor
same,inhibition of Cl- channel TMEM16F,[13],potent inhibitor
